Reference: US8802597B2, “Herbicidal pyrimidines” (E I du Pont de Nemours and Company, priority 2003, dated 2014)
Read-outs that look alike come from different tables or passages of the source.

Legend:
Experiment in all cases: Test C pre/postemergence
Assay type in all cases: in vivo
[1] = test system: Surinam grass (Brachiaria decumbens); settings: Urochloa decumbens; for pest or weed control at 125 g/ha: 125 g ai/ha; for pest or weed control at 31 g/ha: 31 g ai/ha; for pest or weed control at 62 g/ha: 62 g ai/ha; for pest or weed control at 250 g/ha: 250 g ai/ha
In short: (§1)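 Pre: seeds planted, sprayed same day. Post: 1- to 4-leaf plants (2–18 cm). Formulation: non-phytotoxic solvent + surfactant. Greenhouse 12–14 d; visual % control vs untreated, 0–100.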

[2] = test system: bermudagrass (Cynodon dactylon); settings: Cynodon dactylon; for pest or weed control at 31 g/ha: 31 g ai/ha; for pest or weed control at 62 g/ha: 62 g ai/ha; for pest or weed control at 125 g/ha: 125 g ai/ha; for pest or weed control at 125 g/ha / pest or weed control at 250 g/ha: scale 0 to 100; for pest or weed control at 250 g/ha: 250 g ai/ha
In short: as §1

[3] = test system: common (oilseed) sunflower (Helianthus annuus); settings: Helianthus annuus, pre-emergence, Preemergence, read-out: Plant response rating, Sunflower
In short: as §1

[4] = test system: crabgrass (Digitaria sanguinalis); settings: Digitaria sanguinalis; for pest or weed control at 31 g/ha: 31 g ai/ha; for pest or weed control at 62 g/ha: 62 g ai/ha; for pest or weed control at 125 g/ha: 125 g ai/ha; for pest or weed control at 250 g/ha: 250 g ai/ha
In short: as §1

[5] = test system: giant foxtail (Setaria faberii); settings: Setaria faberi; for pest or weed control at 125 g/ha: 125 g ai/ha; for pest or weed control at 31 g/ha: 31 g ai/ha; for pest or weed control at 62 g/ha: 62 g ai/ha; for pest or weed control at 250 g/ha: 250 g ai/ha
In short: as §1

[6] = test system: goosegrass (Eleusine indica); settings: Eleusine indica; for pest or weed control at 31 g/ha: 31 g ai/ha; for pest or weed control at 62 g/ha: 62 g ai/ha; for pest or weed control at 125 g/ha: 125 g ai/ha; for pest or weed control at 250 g/ha: 250 g ai/ha
In short: as §1

[7] = test system: johnsongrass (Sorghum halepense); settings: Sorghum halepense, post-emergence, Postemergence
In short: as §1

[8] = post-emergence, Postemergence, scale 0 to 100 (0 no effect, 100 complete control), read-out: Surinam Grass plant response rating
[9] = pre-emergence, Preemergence, scale 0 to 100, 0 no effect, 100 complete control, read-out: Plant response rating, Surinam Grass
[10] = pre-emergence, Preemergence, scale 0 to 100, read-out: Plant response rating, Surinam Grass
[11] = post-emergence, Postemergence, read-out: Plant response rating, Bermudagrass
[12] = pre-emergence, Preemergence, scale 0 to 100, 0 no effect, 100 complete control, read-out: Plant response rating, Bermudagrass
[13] = pre-emergence, Preemergence, read-out: Plant response rating, Bermudagrass
[14] = post-emergence, Postemergence, scale 0 to 100 (0 no effect, 100 complete control), read-out: Crabgrass plant response rating
[15] = pre-emergence, Preemergence, scale 0 to 100, 0 no effect, 100 complete control, read-out: Plant response rating, Crabgrass
[16] = pre-emergence, Preemergence, scale 0 to 100, read-out: Plant response rating, Crabgrass
[17] = post-emergence, Postemergence, scale 0 to 100 (0 no effect, 100 complete control), read-out: Foxtail, Giant plant response rating
[18] = pre-emergence, Preemergence, scale 0 to 100, 0 no effect, 100 complete control, read-out: Plant response rating, Foxtail, Giant
[19] = pre-emergence, Preemergence, scale 0 to 100, read-out: Plant response rating, Foxtail, Giant
[20] = post-emergence, Postemergence, scale 0 to 100 (0 no effect, 100 complete control), read-out: Goosegrass plant response rating
[21] = pre-emergence, Preemergence, scale 0 to 100, 0 no effect, 100 complete control, read-out: Plant response rating, Goosegrass
[22] = pre-emergence, Preemergence, scale 0 to 100, read-out: Plant response rating, Goosegrass

COC(=O)c1nc(C2CC2)nc(N)c1Cl [Compound 9, methyl 6-amino-5-chloro-2-cyclopropyl-4-pyrimidinecarboxylate]
45%: pest or weed control at 31 g/ha ([1]; post-emergence, Postemergence, read-out: Plant response rating (scale of 0 to 100), Surinam Grass) | pest or weed control at 250 g/ha ([6]; post-emergence, Postemergence, scale 0 to 100, read-out: Plant response rating, Goosegrass)
100%: pest or weed control at 62 g/ha [1, 9] | pest or weed control at 125 g/ha [1, 10] | pest or weed control at 250 g/ha [1, 10] | pest or weed control at 31 g/ha [2, 12] | pest or weed control at 62 g/ha [2, 12] | pest or weed control at 125 g/ha [2, 13] | pest or weed control at 250 g/ha [2, 13] | pest or weed control at 31 g/ha ([3]; 31 g ai/ha, scale 0 to 100, 0 no effect, 100 complete control) | pest or weed control at 62 g/ha ([3]; 62 g ai/ha, scale 0 to 100, 0 no effect, 100 complete control) | pest or weed control at 125 g/ha ([3]; 125 g ai/ha, scale 0 to 100) | pest or weed control at 250 g/ha ([3]; 250 g ai/ha, scale 0 to 100) | pest or weed control at 250 g/ha [4, 16]
75%: pest or weed control at 125 g/ha [1, 8] | pest or weed control at 125 g/ha [4, 14] | pest or weed control at 125 g/ha [5, 17] | pest or weed control at 125 g/ha [5, 19]
0%: pest or weed control at 31 g/ha [5, 18] | pest or weed control at 62 g/ha [5, 18] | pest or weed control at 31 g/ha ([6]; post-emergence, Postemergence, read-out: Plant response rating (scale of 0 to 100), Goosegrass) | pest or weed control at 62 g/ha [6, 20] | pest or weed control at 31 g/ha [6, 21] | pest or weed control at 62 g/ha [6, 21]
60%: pest or weed control at 31 g/ha ([2]; post-emergence, Postemergence, read-out: Plant response rating (scale of 0 to 100), Bermudagrass) | pest or weed control at 31 g/ha ([4]; post-emergence, Postemergence, read-out: Plant response rating (scale of 0 to 100), Crabgrass) | pest or weed control at 31 g/ha ([5]; post-emergence, Postemergence, read-out: Plant response rating (scale of 0 to 100), Foxtail, Giant)
70%: pest or weed control at 125 g/ha [2, 11] | pest or weed control at 62 g/ha [4, 14]
50%: pest or weed control at 250 g/ha [6, 22]
65%: pest or weed control at 62 g/ha [1, 8] | pest or weed control at 62 g/ha ([2]; post-emergence, Postemergence, scale 0 to 100 (0 no effect, 100 complete control), read-out: Bermudagrass plant response rating) | pest or weed control at 62 g/ha [5, 17] | pest or weed control at 62 g/ha ([7]; 62 g ai/ha, scale 0 to 100 (0 no effect, 100 complete control), read-out: Johnsongrass plant response rating)
40%: pest or weed control at 125 g/ha [6, 20]
80%: pest or weed control at 250 g/ha ([1]; post-emergence, Postemergence, scale 0 to 100, read-out: Plant response rating, Surinam Grass) | pest or weed control at 250 g/ha [2, 11] | pest or weed control at 250 g/ha ([4]; post-emergence, Postemergence, scale 0 to 100, read-out: Plant response rating, Crabgrass) | pest or weed control at 250 g/ha ([5]; post-emergence, Postemergence, scale 0 to 100, read-out: Plant response rating, Foxtail, Giant) | pest or weed control at 250 g/ha [5, 19]
20%: pest or weed control at 31 g/ha [4, 15] | pest or weed control at 125 g/ha [6, 22]
95%: pest or weed control at 31 g/ha [1, 9] | pest or weed control at 62 g/ha [4, 15] | pest or weed control at 125 g/ha [4, 16]
55%: pest or weed control at 31 g/ha ([7]; 31 g ai/ha, read-out: Plant response rating (scale of 0 to 100), Johnsongrass)
